Data set [1] is described as follows: Counterscreen for AddAB inhibitors: absorbance-based bacterial cell-based high throughput dose response assay for inhibitors of bacterial viability. [Related pubchem assays (depositor defined):AID435030, AID449728, AID449731, AID488942, AID488955, AID488956]. It is filed as functional. In general terms: The purpose of a counterscreen is to sort out artefacts and off-target activity.

In another data set the target is T1, Exodeoxyribonuclease V (Escherichia coli (strain K12), UniProt P04993+P07648+P08394).
T1 sequence (P04993 whole entry): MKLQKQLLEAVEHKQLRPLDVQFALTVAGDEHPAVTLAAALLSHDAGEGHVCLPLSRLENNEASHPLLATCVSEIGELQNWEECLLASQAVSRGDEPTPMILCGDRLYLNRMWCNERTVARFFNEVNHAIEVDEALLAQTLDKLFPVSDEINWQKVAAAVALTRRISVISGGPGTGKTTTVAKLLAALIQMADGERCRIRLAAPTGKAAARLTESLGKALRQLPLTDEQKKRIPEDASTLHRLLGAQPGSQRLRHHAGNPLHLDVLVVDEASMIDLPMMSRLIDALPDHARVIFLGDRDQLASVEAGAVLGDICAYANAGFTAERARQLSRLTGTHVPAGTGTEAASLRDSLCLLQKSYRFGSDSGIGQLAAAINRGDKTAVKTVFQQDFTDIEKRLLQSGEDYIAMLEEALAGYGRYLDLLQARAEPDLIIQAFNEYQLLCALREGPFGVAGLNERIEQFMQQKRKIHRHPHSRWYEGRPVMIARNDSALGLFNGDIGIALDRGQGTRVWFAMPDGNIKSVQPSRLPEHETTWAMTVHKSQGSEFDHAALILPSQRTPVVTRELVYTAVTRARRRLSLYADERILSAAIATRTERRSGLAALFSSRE
T1 sequence (P07648 whole entry): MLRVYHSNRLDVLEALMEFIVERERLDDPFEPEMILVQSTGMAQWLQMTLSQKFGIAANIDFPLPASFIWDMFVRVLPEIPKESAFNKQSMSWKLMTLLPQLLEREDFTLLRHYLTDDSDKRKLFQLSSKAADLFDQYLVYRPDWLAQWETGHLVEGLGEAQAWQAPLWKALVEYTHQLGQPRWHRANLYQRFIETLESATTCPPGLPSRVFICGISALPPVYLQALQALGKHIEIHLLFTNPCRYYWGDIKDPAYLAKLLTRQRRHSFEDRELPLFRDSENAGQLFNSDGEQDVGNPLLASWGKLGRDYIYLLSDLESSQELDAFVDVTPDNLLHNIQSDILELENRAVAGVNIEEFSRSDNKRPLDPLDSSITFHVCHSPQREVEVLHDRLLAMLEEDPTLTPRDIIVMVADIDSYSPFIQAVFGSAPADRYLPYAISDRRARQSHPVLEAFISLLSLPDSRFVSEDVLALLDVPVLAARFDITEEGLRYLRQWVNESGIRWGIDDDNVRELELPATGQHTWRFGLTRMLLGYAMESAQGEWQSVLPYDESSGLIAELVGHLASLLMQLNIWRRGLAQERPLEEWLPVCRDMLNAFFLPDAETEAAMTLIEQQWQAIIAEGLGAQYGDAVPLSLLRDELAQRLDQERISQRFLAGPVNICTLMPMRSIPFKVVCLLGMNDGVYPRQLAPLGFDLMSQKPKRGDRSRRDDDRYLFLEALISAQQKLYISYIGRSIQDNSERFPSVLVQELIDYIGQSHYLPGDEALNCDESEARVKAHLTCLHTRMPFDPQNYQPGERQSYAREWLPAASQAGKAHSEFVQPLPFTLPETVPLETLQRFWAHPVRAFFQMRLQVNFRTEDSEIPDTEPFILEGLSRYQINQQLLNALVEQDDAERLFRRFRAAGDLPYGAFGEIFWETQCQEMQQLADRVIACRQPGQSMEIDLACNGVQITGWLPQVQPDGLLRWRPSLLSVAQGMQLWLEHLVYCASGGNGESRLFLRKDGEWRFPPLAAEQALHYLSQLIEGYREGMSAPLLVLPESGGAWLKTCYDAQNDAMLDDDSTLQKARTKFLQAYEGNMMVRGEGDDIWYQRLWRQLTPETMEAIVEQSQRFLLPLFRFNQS
T1 sequence (P08394 whole entry): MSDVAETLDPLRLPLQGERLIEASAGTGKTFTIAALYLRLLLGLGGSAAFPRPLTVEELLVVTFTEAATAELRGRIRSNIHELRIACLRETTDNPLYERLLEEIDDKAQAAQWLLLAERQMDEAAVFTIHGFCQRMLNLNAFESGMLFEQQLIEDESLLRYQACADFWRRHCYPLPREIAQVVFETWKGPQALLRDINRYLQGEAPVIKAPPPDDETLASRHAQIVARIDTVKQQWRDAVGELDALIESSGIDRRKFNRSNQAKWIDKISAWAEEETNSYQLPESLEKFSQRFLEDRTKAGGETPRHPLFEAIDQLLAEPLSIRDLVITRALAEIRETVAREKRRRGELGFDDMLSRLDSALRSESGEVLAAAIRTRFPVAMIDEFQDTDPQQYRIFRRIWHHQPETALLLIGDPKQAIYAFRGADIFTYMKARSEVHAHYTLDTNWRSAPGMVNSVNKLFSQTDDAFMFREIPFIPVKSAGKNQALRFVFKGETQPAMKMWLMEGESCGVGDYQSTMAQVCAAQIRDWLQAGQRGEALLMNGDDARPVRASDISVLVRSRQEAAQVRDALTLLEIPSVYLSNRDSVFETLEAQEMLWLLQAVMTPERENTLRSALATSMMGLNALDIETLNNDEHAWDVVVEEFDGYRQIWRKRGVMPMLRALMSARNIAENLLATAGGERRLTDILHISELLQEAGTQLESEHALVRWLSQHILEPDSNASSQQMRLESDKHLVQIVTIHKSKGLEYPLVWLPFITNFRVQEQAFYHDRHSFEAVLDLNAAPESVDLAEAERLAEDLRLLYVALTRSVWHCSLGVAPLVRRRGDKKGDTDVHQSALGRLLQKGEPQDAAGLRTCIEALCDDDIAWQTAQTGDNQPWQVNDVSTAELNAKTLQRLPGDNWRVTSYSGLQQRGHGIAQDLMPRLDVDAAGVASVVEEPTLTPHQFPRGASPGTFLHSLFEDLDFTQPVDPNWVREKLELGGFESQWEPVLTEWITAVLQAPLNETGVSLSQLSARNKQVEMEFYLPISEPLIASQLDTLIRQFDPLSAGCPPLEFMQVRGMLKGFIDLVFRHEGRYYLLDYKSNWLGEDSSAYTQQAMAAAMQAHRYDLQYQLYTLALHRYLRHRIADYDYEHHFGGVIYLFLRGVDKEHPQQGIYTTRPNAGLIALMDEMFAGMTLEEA
Nature of the data set: E. coli RecBCD inhibitors, dose response, counter-screen for AddAB inhibitor project, absorbance, V66 E. coli, mutant T4 phage (AID 492957). It is filed as functional, cell-based, Escherichia coli str. K-12 substr. MG1655.

The target of a further data set is T2, Coagulation factor XII (Homo sapiens, UniProt P00748).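 Also: activated factor XIIa alpha cleaving a fluorogenic AMC peptide substrate; inhibitor potency from loss of enzyme activity.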
T2 sequence (P00748 whole entry): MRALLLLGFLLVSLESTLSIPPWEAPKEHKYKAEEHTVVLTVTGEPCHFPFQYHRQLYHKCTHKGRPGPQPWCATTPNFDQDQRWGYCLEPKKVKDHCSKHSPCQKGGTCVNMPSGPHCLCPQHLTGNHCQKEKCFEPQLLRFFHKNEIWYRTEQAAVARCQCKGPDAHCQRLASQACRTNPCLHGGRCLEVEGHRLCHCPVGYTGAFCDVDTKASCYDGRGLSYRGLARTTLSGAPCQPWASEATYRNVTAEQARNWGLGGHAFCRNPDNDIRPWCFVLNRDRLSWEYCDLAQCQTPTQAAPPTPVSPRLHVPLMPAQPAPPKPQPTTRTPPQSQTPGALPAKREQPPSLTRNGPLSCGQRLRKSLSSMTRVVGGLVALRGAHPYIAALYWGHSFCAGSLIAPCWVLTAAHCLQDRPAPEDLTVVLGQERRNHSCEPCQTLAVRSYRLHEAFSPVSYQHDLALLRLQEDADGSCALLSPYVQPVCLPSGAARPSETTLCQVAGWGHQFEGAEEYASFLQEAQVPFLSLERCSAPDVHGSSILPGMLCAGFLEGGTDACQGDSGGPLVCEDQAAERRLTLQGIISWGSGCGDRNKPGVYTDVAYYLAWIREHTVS
It is filed as functional.

The next data set addresses Prothrombin (Homo sapiens, UniProt P00734). Kind of data set: Thrombin 1536 HTS Dose Response Confirmation. [Related pubchem assays: 1046 (Thrombin 1536 HTS; hits were confirmed in this assay)]. The format is functional.
The next data set has as its target Cytochrome P450 3A4 (Homo sapiens, UniProt P08684).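 Also: CYP3A4 tested as one member of a cytochrome P450 panel screen.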
Data set [2] deals with T3, High affinity choline transporter 1 (Homo sapiens, UniProt Q9GZV3).
T3 sequence (Q9GZV3 whole entry): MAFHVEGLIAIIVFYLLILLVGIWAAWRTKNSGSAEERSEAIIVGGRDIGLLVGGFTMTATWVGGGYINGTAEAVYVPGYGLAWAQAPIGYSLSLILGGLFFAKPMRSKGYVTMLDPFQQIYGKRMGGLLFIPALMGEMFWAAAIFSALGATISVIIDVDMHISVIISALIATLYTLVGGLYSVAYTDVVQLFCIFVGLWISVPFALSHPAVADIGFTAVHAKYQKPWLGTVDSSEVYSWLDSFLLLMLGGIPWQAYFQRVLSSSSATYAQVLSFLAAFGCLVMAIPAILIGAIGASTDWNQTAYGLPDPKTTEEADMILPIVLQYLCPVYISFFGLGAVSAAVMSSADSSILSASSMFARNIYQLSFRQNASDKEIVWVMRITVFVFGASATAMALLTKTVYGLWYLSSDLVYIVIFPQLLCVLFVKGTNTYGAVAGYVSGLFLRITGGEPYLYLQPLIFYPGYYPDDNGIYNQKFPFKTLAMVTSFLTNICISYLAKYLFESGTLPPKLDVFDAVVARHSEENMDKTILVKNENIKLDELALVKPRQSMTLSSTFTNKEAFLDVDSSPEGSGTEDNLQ
Kind of data set: CHT inhibitors, dose response, cell-based, 5-point CRC, membrane potential dye (AID 504840). The format is functional.

Data set [3] can be described thus: A Cell Based Secondary Assay To Explore Cytotoxicity of Compounds that Sensitize Mycobacterium Tuberculosis to Beta-Lactam Antibiotics. The format is functional.
A further data set deals with Cytochrome P450 2C9 (Homo sapiens, UniProt P11712).
Data set [4] has as its target Glucose-6-phosphate 1-dehydrogenase (Homo sapiens, UniProt P11413). Nature of the data set: human G6PD enzyme inhibitors, dose response, selectivity assay for P. falciparum G6PD inhibitor project, biochemical, fluorescence (AID 504792). The format is functional.
Data set [5] deals with Kappa-type opioid receptor (Homo sapiens, UniProt P41145). Nature of the data set: SAR analysis of small molecule agonists of the kappa opioid receptor via a luminescent beta-arrestin assay - Set 3. [Related pubchem assays (depositor defined):AID1777, AID1785, AID1786, AID1966, AID2133, AID2136, AID2284, AID2500]. It is filed as functional.
Data set [6] addresses T4, Dual specificity protein phosphatase 3 (Homo sapiens, UniProt P51452). Kind of data set: VHR1 phosphatase inhibitors, primary screen, biochemical, absorbance, uHTS (AID 1654).
Data set [7] deals with T5, Dual specificity protein phosphatase 6 (Rattus norvegicus, UniProt Q64346).
T5 sequence (Q64346 whole entry): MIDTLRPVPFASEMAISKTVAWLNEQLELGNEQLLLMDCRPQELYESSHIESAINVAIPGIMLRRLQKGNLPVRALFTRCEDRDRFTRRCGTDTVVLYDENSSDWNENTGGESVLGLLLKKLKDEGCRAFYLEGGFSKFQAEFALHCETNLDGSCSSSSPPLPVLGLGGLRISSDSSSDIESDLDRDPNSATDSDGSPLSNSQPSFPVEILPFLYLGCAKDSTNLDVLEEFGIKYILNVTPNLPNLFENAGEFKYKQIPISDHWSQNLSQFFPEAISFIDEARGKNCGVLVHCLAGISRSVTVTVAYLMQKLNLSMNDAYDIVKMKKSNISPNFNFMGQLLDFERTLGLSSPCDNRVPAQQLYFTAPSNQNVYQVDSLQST
Nature of the data set: MKP-3 phosphatase inhibitors, primary screen, biochemical, rat enzyme, in vitro (AID 425).

Data set [8] has as its target T4, Dual specificity protein phosphatase 3. Kind of data set: VHR1 phosphatase inhibitors, biochemical (AID 1878).

The source made the active and inactive calls.

The results in this text go back to ChEMBL document CHEMBL1201862, “PubChem BioAssay data set” (2004).

Chain of Cytochrome P450 3A4 (P08684 whole entry): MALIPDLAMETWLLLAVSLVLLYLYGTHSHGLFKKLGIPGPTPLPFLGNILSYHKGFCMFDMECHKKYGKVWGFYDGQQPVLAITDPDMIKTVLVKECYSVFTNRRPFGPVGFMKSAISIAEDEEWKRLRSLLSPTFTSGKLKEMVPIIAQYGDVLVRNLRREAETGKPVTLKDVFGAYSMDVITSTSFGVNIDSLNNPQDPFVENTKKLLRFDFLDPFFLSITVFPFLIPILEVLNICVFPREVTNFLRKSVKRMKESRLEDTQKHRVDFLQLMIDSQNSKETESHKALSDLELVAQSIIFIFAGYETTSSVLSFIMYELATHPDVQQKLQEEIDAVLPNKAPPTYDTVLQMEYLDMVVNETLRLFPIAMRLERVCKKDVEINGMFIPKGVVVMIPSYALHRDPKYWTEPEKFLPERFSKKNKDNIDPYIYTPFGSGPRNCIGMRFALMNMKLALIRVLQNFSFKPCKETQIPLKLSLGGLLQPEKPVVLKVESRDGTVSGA
Chain of Kappa-type opioid receptor (P41145 whole entry): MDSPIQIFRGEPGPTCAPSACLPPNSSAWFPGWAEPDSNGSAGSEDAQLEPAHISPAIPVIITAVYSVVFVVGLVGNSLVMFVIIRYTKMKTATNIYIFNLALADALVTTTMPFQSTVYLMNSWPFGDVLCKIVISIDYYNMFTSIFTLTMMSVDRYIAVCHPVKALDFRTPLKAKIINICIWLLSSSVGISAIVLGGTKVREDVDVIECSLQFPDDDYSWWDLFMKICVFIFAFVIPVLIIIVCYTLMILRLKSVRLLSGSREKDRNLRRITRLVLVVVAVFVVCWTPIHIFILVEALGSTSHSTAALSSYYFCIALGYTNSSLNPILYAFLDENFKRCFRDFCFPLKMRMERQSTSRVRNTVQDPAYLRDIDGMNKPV
T4 sequence (P51452 whole entry): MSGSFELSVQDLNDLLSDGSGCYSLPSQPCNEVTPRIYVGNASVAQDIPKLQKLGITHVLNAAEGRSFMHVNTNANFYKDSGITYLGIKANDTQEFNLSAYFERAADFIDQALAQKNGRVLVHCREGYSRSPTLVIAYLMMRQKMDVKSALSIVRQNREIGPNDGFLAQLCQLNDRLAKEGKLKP
Chain of Cytochrome P450 2C9 (P11712 whole entry): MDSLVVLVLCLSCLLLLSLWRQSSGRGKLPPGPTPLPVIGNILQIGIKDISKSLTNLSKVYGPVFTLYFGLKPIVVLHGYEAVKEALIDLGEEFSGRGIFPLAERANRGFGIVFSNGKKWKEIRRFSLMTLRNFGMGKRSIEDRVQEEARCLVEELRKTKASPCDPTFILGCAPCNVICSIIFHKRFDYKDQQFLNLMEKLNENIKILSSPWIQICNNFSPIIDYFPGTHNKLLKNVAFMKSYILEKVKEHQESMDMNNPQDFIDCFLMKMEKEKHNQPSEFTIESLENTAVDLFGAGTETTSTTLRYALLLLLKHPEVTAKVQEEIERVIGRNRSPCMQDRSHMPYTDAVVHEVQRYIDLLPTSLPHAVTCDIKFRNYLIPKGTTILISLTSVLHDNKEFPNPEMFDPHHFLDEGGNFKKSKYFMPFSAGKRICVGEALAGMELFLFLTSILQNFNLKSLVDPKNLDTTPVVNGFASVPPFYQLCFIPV
Chain of Glucose-6-phosphate 1-dehydrogenase (P11413 whole entry): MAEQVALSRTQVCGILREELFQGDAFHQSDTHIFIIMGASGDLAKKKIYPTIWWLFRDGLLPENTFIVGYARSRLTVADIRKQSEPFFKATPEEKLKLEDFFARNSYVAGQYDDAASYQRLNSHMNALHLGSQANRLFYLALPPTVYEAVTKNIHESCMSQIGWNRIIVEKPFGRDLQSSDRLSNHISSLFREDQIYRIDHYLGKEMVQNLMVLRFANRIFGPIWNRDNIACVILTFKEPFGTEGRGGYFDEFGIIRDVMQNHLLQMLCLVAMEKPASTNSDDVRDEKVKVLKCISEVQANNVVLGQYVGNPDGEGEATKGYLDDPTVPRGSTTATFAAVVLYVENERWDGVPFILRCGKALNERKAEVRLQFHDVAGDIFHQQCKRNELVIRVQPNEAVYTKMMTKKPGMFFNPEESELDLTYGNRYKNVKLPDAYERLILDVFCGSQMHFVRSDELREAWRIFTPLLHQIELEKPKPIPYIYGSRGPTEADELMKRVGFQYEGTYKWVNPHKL

Take `Cc1cc2c(c(=O)o1)C(c1ccc([N+](=O)[O-])o1)C(C#N)=C(N)O2` (configuration not stated): the IC50 is 102 µM (inactive) in data set [1] and > 119 µM (inactive) at Exodeoxyribonuclease V.
On to `Cc1ccc(S(=O)(=O)Nc2cccnc2Oc2ccc(Cl)cc2)cc1`, for which the IC50 at Coagulation factor XII was > 50 µM (inactive); on Prothrombin, > 50 µM (not active).
As for `Cn1cccc1C(=O)N1CCC2(CC1)CN(c1ccccn1)C2`, at Cytochrome P450 3A4, the AC50 result is on record as “inconclusive”.
For `CN1CCN(S(=O)(=O)c2ccc(NC(=O)c3ccc(Br)s3)cc2)CC1`, the IC50 in [2] was 16.6 µM (active). Moreover, the CC50 in [3] was > 40 µM (active).
Consider `COc1ccc(C(=O)NC2CCCCC2)cc1OC1CCN(C(C)C)CC1`, for which the IC50 in data set [2] is 17.4 µM (active).
As to `COc1cccc(Cn2c(=O)c(-c3ccc(Cl)cc3)nc3cnc(N4CCN(C)CC4)nc32)c1`, the AC50 result on Cytochrome P450 3A4 was “inconclusive”.
As to `CC(=O)N1CCC2(CC1)CCN(C(c1ccccc1)c1ccccc1)CC2`, the AC50 on Cytochrome P450 2C9 was 39.8 µM (inconclusive); on Cytochrome P450 3A4, “inconclusive”.
As for `COc1c(O)c(O)c2oc(-c3ccccc3)cc(=O)c2c1OC`, the IC50 is > 80 µM (inactive) in [4], > 119 µM (inactive) in data set [1] and > 119 µM (inactive) at Exodeoxyribonuclease V.
Regarding `Cc1cccc(C)c1OCc1cc(C(=O)N(C)Cc2nc3ccccc3[nH]2)no1`, the IC50 (in data set [1]; on Exodeoxyribonuclease V) was > 119 µM (inactive) each time.
With `Clc1ccc(CSc2nnc(-c3ccccn3)n2Cc2cccnc2)cc1Cl`, the EC50 in data set [5] was 756 nM (active).
`Clc1ccc(CSc2nnc(-c3ccccn3)n2Cc2ccccc2)cc1Cl`: the EC50 in data set [5] is 1240 nM (active).
Regarding `CC12CCC(c3c(C(=O)N4CCOCC4)nn(-c4ccccc4)c31)C2(C)C` (configuration not stated), the IC50 at Coagulation factor XII is > 50 µM (inactive).
For the molecule `Oc1c(Br)cc(/C=N/n2c(S)nnc2-c2ccccc2)c(Br)c1O`, the values for the IC50 in data set [6], in [7] and in data set [8] were < 1.23 µM (inactive), 90.3 µM (active) and 2.39 µM (active), respectively.

By IC50 is commonly meant the concentration at which inhibition is half-maximal. The AC50 is the midpoint of the concentration-response curve, whichever way the signal moves. A word on the CC50: it is the concentration that lowers cell viability or growth by half. Broadly, the EC50 is the midpoint of the concentration-response curve.
